What all share (assay type): in vivo
In one experiment the test system is Magnaporthe grisea. Put plainly: whole plant or invertebrate. The following applies: Pyricularia oryzae, foliar, read-out: PYRIOR percent control.
Experiment [1] relates to Puccinia recondita tritici. Put plainly: Leaf Rust of Wheat (PUCCRT), foliar spray, percent disease control. The following applies: tested at 8.3 ppm. As for the experimental part:
The activity of the compounds as effective fungicides was determined by applying the compounds to plants and observing control of fungal disease. The compounds were formulated at 200 ppm in 10 vol. % acetone plus 90 vol. % Triton X water (deionized water 99.99 wt %+0.01 wt % Triton X100), giving a “formulated test compound.” In a few cases, compounds were formulated at 75 or 8.3 ppm rather than 200 ppm in 10 vol. % acetone plus 90 vol. % Triton X water (deionized water 99.99 wt. %+0.01 wt. % Triton X100), giving a “formulated test compound.” Formulated test compounds were applied to plants using a turn table sprayer fitted with two opposing air atomization nozzles which delivered approximately 1500 L/ha of spray volume. All plants were inoculated with spores of the fungus the day after treatment, then incubated in an environment conducive to disease development. Disease severity was evaluated 4 to 15 days later, depending on the disease and the speed of disease development. The following experiments were performed in the laboratory to determine the fungicidal efficacy of the compounds of the invention. […] Each pot contained 3-8 seedlings. These plants were sprayed until wet with the formulated test compounds. On the following day, the leaves were inoculated with an aqueous spore suspension of Puccinia recondita tritici and the plants were kept in high humidity overnight to permit spores to germinate and infect the leaf. The plants were then transferred to a greenhouse until disease developed on untreated control plants. […] The effectiveness of the test compounds at controlling disease when sprayed on leaves was determined by assessing the severity of disease on treated plants, then converting the severity to percent control based on the level of disease on untreated, inoculated plants. Data are the level (in percent) at which the given disease was controlled when the given compound was applied to the foliage of the plants at 200 ppm. In a few cases (noted in the table) the compound was applied to the plants at 75 ppm or 8.3 ppm.

The next experiment concerns Leptosphaeria nodorum. Put plainly: Glume Blotch of Wheat (LEPTNO), foliar spray, percent disease control. Particulars: Parastagonospora nodorum, tested at 75 ppm. As for the experimental part: The activity of the compounds as effective fungicides was determined by applying the compounds to plants and observing control of fungal disease. The compounds were formulated at 200 ppm in 10 vol. % acetone plus 90 vol. % Triton X water (deionized water 99.99 wt %+0.01 wt % Triton X100), giving a “formulated test compound.” In a few cases, compounds were formulated at 75 or 8.3 ppm rather than 200 ppm in 10 vol. % acetone plus 90 vol. % Triton X water (deionized water 99.99 wt. %+0.01 wt. % Triton X100), giving a “formulated test compound.” Formulated test compounds were applied to plants using a turn table sprayer fitted with two opposing air atomization nozzles which delivered approximately 1500 L/ha of spray volume. All plants were inoculated with spores of the fungus the day after treatment, then incubated in an environment conducive to disease development. Disease severity was evaluated 4 to 15 days later, depending on the disease and the speed of disease development. The following experiments were performed in the laboratory to determine the fungicidal efficacy of the compounds of the invention. […] Each pot contained 3-20 seedlings. These plants were sprayed until wet with the formulated test compound. On the following day, the leaves were inoculated with an aqueous spore suspension of Leptosphaeria nodorum and the plants were kept in high humidity (one day in a dark dew chamber followed by four days in a lighted dew chamber) to permit spores to germinate and infect the leaf. The plants were then transferred to a greenhouse until disease developed on untreated control plants. […] The effectiveness of the test compounds at controlling disease when sprayed on leaves was determined by assessing the severity of disease on treated plants, then converting the severity to percent control based on the level of disease on untreated, inoculated plants. Data are the level (in percent) at which the given disease was controlled when the given compound was applied to the foliage of the plants at 200 ppm. In a few cases (noted in the table) the compound was applied to the plants at 75 ppm or 8.3 ppm.

In experiment [2] the test system is DROSME, AEDSAE, LAPHEG, or HELIVI. Put plainly: Insecticidal activity, active if any of DROSME, AEDSAE, LAPHEG or HELIVI was controlled at 80% or more. Particulars: read-out: >80% mortality on any insect species @ 4000 ppm.
The subject of another experiment is Cochliobolus sativus. Put plainly: Spot Blotch of Wheat (COCHSA), foliar spray, percent disease control. The following applies: Bipolaris sorokiniana, read-out: COCHSA percent control.
Experiment [3] concerns Pseudoperonospora cubensis. Put plainly: Cucumber Downy Mildew (PSPECU), foliar spray, percent disease control. The following applies: read-out: PSPECU percent control.
The next experiment relates to Colletotricum lagenarium. Put plainly: Cucumber Anthracnose (COLLLA), foliar spray, percent disease control.

Molecules are shown by their SMILES. Where two headings read alike, the source gives them in different places. Some results are limits rather than exact numbers.

For the compound `COc1ccc(CCNc2ncnc3nccnc23)cc1` [Compound 45], the pest or weed control at 8.3 ppm in the experiment on Magnaporthe grisea is 80 to 100%; in experiment [1] it was 50 to 79%. For the same compound, the pest or weed control at 75 ppm with Leptosphaeria nodorum lay within 0 to 49%.
On the same counts, the results for `Cc1ccnc(Cl)c1Oc1ccc(CCNc2ncnc3nccnc23)cc1` [Compound 98] are 50 to 79%, 50 to 79% and 0 to 49%.
The corresponding values for `Fc1cc(Oc2ccc(C(F)(F)F)cn2)ccc1CCNc1ncnc2nccnc12` [Compound 105] are 80 to 100%, 80 to 100% and 80 to 100%.
On the same counts, the results for `FC(F)(F)c1cnc2nc(Oc3ccc(CCNc4ncnc5nccnc45)cc3)sc2c1` [Compound 32] are 50 to 79%, 50 to 79% and 0 to 49%.
In the case of `FC(F)(F)c1ccnc(Oc2ccc(CCNc3ncnc4nccnc34)cc2C(F)(F)F)c1` [Compound 227], the pest or weed control at 8.3 ppm in experiment [1] lay in the range of 80 to 100%. The compound further came in with a pest or weed control at 75 ppm in the experiment with Leptosphaeria nodorum of 80 to 100%.
`FC(F)(F)c1ccnc(Oc2ccc(CCOc3ncnc4nccnc34)cc2)c1` [Compound 206, 4-{2-[4-(4-Trifluoromethylpyridin-2-yloxy)-phenyl]-ethoxy}-pteridine] returned a pest or weed control at 8.3 ppm in experiment [1] of 0 to 49%. The pest or weed control at 75 ppm in the experiment on Leptosphaeria nodorum lay in the range of 0 to 49%.
`Clc1csc(Oc2ccc(CCNc3ncnc4nccnc34)cc2)n1` [Compound 31]: the pest or weed control at 8.3 ppm fell in the range of 80 to 100% in the experiment with Magnaporthe grisea and 50 to 79% in experiment [1]. Also, the pest or weed control at 75 ppm in the experiment with Leptosphaeria nodorum lay within 0 to 49%.
The corresponding values for `Cc1nc(NCCc2ccc(Oc3cc(C(F)(F)F)ccn3)cc2)c2nc(C)c(C)nc2n1` [Compound 226] are 0 to 49%, 0 to 49% and 0 to 49%.
The corresponding values for `CC(C)(C)OC(=O)c1ccc(Oc2ccc(CCNc3ncnc4nccnc34)cc2)cc1` [Compound 154] are 80 to 100%, 80 to 100% and 80 to 100%.
As to `Cc1ccnc(Oc2ccc(CCNc3ncnc4nccnc34)cc2)c1F` [Compound 99], the pest or weed control at 8.3 ppm (in the experiment on Magnaporthe grisea; in experiment [1]) was 80 to 100% each time. This compound came in with a pest or weed control at 75 ppm with Leptosphaeria nodorum of 50 to 79%.
For the compound `N#Cc1c(Cl)cncc1Oc1cccc(CCNc2ncnc3nccnc23)c1` [Compound 70], the pest or weed control at 8.3 ppm (in the experiment with Magnaporthe grisea; in experiment [1]) was 50 to 79% in each case. This compound also returned a pest or weed control at 75 ppm in the experiment with Leptosphaeria nodorum of 0 to 49%.
Consider `COc1ccc2c(c1)CC(Nc1ncnc3ncc(C)nc13)C2` (centres unmarked) [Compound 116], for which the results for the pest or weed control at 8.3 ppm (with Magnaporthe grisea; in experiment [1]) were 50 to 79% and 0 to 49%, respectively. Moreover, the pest or weed control at 4000 ppm in experiment [2] was > 80%. In the experiment on Leptosphaeria nodorum, this compound showed a pest or weed control at 75 ppm of 0 to 49%.
In the case of `Ic1ccnc(Oc2ccc(CCNc3ncnc4nccnc34)cc2)c1` [Compound 36, N-(2-{4-[(4-iodopyridin-2-yl)oxy]phenyl}ethyl)pteridin-4-amine], the pest or weed control at 4000 ppm in experiment [2] was > 80%. Moreover, the pest or weed control at 200 µg/mL in the experiment on Cochliobolus sativus (foliar) was in the range of 50 to 79%; in experiment [3] (foliar), 80 to 100%; with Colletotricum lagenarium (foliar), 50 to 79%.
For `Cc1cccc(Oc2ccc(CCNc3ncnc4nccnc34)cc2)n1` [Compound 39], the pest or weed control at 4000 ppm in experiment [2] was > 80%. For the same compound, the pest or weed control at 200 µg/mL in the experiment with Cochliobolus sativus (foliar) was 0 to 49%; in experiment [3] (foliar), 80 to 100%; with Colletotricum lagenarium (foliar) it was 0 to 49%.
For the compound `Cc1nc2ncnc(NCCc3ccc(Oc4ncccc4C(F)(F)F)cc3)c2nc1C` [Compound 200], the pest or weed control at 4000 ppm in experiment [2] was > 80%. Also, the pest or weed control at 200 µg/mL (in the experiment on Cochliobolus sativus (foliar spray); in experiment [3] (foliar spray); with Colletotricum lagenarium (foliar spray)) was 0 to 49% each time.
For `Fc1cnc(C(F)(F)F)c(F)c1Oc1ccc(CCNc2ncnc3ncc(Cl)nc23)cc1` [Compound 117], the pest or weed control at 8.3 ppm in the experiment with Magnaporthe grisea was in the range of 80 to 100%; in experiment [1], 50 to 79%. Moreover, in experiment [2], the pest or weed control at 4000 ppm is > 80%. In the experiment on Leptosphaeria nodorum, this compound returned a pest or weed control at 75 ppm of 50 to 79%.
Regarding `Fc1cc(C(F)(F)F)cnc1Oc1ccc(CCNc2ncnc3nccnc23)cc1` [Compound 54], in experiment [2], the pest or weed control at 4000 ppm is > 80%. The pest or weed control at 200 µg/mL lay within 0 to 49% in the experiment on Cochliobolus sativus (foliar), 80 to 100% in experiment [3] (foliar) and 80 to 100% in the experiment on Colletotricum lagenarium (foliar).
Take `CCOc1cccc(Oc2ccc(CCNc3ncnc4nccnc34)cc2)n1` [Compound 12, {2-[4-(6-Ethoxypyridin-2-yloxy)-phenyl]-ethyl}-pteridin-4-yl-amine]: in experiment [2], the pest or weed control at 4000 ppm was > 80%. The figures for the pest or weed control at 200 µg/mL (in the experiment on Cochliobolus sativus (foliar); in experiment [3] (foliar); in the experiment with Colletotricum lagenarium (foliar)) were 0 to 49%, 80 to 100% and 0 to 49%, respectively.
With `Cc1cccnc1Oc1ccc(CCNc2ncnc3nccnc23)cc1` [Compound 43], the pest or weed control at 4000 ppm in experiment [2] is > 80%. Also, the pest or weed control at 200 µg/mL was in the range of 0 to 49% in the experiment on Cochliobolus sativus (foliar), 80 to 100% in experiment [3] (foliar) and 0 to 49% in the experiment with Colletotricum lagenarium (foliar).
On to `COc1ccc(CCNc2ncnc3nc(C)c(C)nc23)cc1` [Compound 131], for which the pest or weed control at 4000 ppm in experiment [2] was > 80%. The values for the pest or weed control at 200 µg/mL (with Cochliobolus sativus (foliar); in experiment [3] (foliar); in the experiment on Colletotricum lagenarium (foliar)) were 0 to 49%, 80 to 100% and 0 to 49%, respectively.
`FC(F)(F)c1ccc(Oc2ccc(CCNc3ncnc4nccnc34)cc2)nn1` [Compound 34]: in experiment [2], the pest or weed control at 4000 ppm was > 80%. The pest or weed control at 200 µg/mL in the experiment with Cochliobolus sativus (foliar) was 0 to 49%; in experiment [3] (foliar), 80 to 100%; in the experiment on Colletotricum lagenarium (foliar), 0 to 49%.

The values are drawn from patent US8895568B2, “Compositions comprising substituted pteridines as agrochemicals” (Dow AgroSciences LLC, priority 2009, dated 2014).
